What was measured:
[1] = Test in pear flavoured drink; settings: 1 ppm, water, 7% sugar, 0.1% citric acid, pear flavour 0.025%
Text: Test in Pear Flavoured Drink:
Base: water, 7% sugar, 0.1% citric acid, proprietary pear flavour at 0.025%

[2] = Activa strawberry yoghurt; settings: 2 ppm, full fat Activa strawberry flavoured yoghurt
Text: Activa Strawberry Yoghurt
In a Full fat, Activa strawberry flavoured yoghurt C18:2-gaba

Tasting of baked pizza = settings: 0.5 PPM in the crust and 0.5 PPM in the tomato sauce, baked in hot air oven at 200 degrees Celsius
Text: Differentiator high temperature 100-250 degrees Celsius in hot air baking process
C18:2-gaba @ 0.5 PPM in the crust and @ 0.5 PPM in the tomato sauce
The pizza was topped off with cheese and baked in a hot air oven @ 200 degrees Celsius

[3] = Test in peach flavoured drink; settings: 1 ppm, water, 8% sugar, 0.1% citric acid, peach flavour 0.05%
Text: Test in Peach Flavoured Drink:
Base is water, 8% sugar, 0.1% citric acid, and proprietary peach flavour at 0.05%

Soy milk = settings: 2 ppm, 5% sucrose, milk flavor 0.1%
Protocol: In a soy milk sweetened with 5% sucrose by weight, flavoured with a proprietary milk flavour at a dosage of 0.1%, C18:2-gaba was added at 2 ppm
Samples were evaluated by expert tasters. Tasters were asked to describe the samples focusing on authentic taste , mouthfeel, fullness, salivation, sweetness, juiciness, richness, long lastingness and fattiness.

[4] = Test on Tang powdered soft drink; settings: 0.5 ppm, orange flavoured Tang
Protocol: In an orange flavoured Tang powdered soft drink (market product) sweetened with sucrose plus high intensity sweetener and containing citric acid and C18:2-gaba.
All samples were evaluated by expert tasters. Tasters were asked to describe the samples focusing on authentic taste, mouthfeel & body, enhancement, richness, juiciness, long lastingness, salivation, sweetness, masking off notes of high intensity sweetener
Base is Orange flavoured Tang

[5] = Test in pineapple flavoured drink; settings: 1 ppm, water, 8% sugar, 0.1% citric acid, pineapple flavour 0.03%
Text: Test in Pineapple Flavoured Drink:
Base is water, 8% sugar, 0.1% citric acid and proprietary pineapple flavour at 0.03%

Test in 3 in 1 coffee = settings: 1 ppm, 3-in-1 coffee beverage with sucrose and creamer with fat
Protocol: In a 3 in 1 Coffee beverage from Nestle (market product) sweetened with sucrose and containing creamer with fat C18:2-gaba was added.
(§1) Samples were evaluated by expert tasters. Tasters were asked to describe the samples focusing on authentic taste, mouthfeel, fullness, salivation, sweetness, juiciness, richness, long lastingness and fattiness.
Base is 3-in-1 Coffee beverage (market product) sweetened with sucrose and containing creamer with fat

[6] = Calve salad dressing low fat; settings: 0.5 ppm
Text: Calve Salad Dressing Low Fat:
Base is Calve salad dressing (market product)

[7] = Test on Baileys cream liqueur; settings: 1 ppm
Protocol: Test on Baileys Cream Liqueur:
In Baileys cream liqueur (Market Product) C18:2-gaba was added at 1 ppm.
Samples were evaluated by expert tasters. Tasters were asked to describe the samples focusing on authentic taste, alcohol impact, mouthfeel, fullness, salivation, sweetness, bitterness, richness, long lastingness and fattiness.
Base is Baileys cream liqueur

[8] = Comparison in a mango juice drink; settings: 2 ppm, 8% sucrose, 0.1% citric acid, 0.18 g clear mango juice, mango flavour 0.05%
Text: Comparison in a Mango Juice Drink
Base is 8% sucrose, 0.1% citric acid, 0.18 g clear mango juice, and a proprietary mango flavour at 0.05%.

[9] = Calve 60% reduced fat mayonnaise; settings: 0.5 ppm, Calve mayonnaise 60% reduced fat
Text: Calve 60% Reduced Fat Mayonnaise
Base is Calve Mayonnaise 60% reduced fat (market Product)

[10] = Test in a strawberry yoghurt; settings: 2 ppm, 1.5% fat yoghurt, 8% sucrose, strawberry flavour 0.015%
Text: Test in a Strawberry Yoghurt
Base: Yoghurt 1.5% fat yoghurt, 8% sucrose, proprietary strawberry flavour @ 0.015%

[11] = Tasting in pilaf (cooked rice with flavoured butter); settings: standard cooked rice with 10% of the C18:2-gaba flavoured butter
Protocol: (§2) The following formulations were prepared and tasted by trained panelists.

[12] = Chocolate milk with different fat content
Protocol: Chocolate Milk With Different Fat Content
In a chocolate milk 1.8% and 3% fat C18:2-gaba was added at 0.5 and 1 ppm.
as §1

Tasting in cheese sauce = settings: 0.5 PPM in cheese sauce 5% fat 1.6% salt
Protocol: as §2
Cheese sauce: 5% fat 1.6% salt

[13] = Test on Kikkoman soy sauce low salt; settings: 0.5 ppm
Text: Test on Kikkoman Soy Sauce Low Salt
Base is Kikkoman soy sauce

[14] = Tasting of chicken filet fried in oil; settings: 2.0 PPM in 135 gram frying oil (82% fat)
Protocol: Differentiator high temperature 100-250 degrees Celsius in a frying in oil process
C18:2-gaba @ 2.0 PPM in 135 gram frying oil (blue band 82% Fat) 450 gram chicken filet 2 minutes high fire and 5 minutes medium fire.

[15] = Tasting in standard chicken bouillon base; settings: 0.5 PPM in standard chicken bouillon base, 0.7% salt, 0.5% fat
Protocol: as §2
Standard Chicken bouillon base, 0.7% salt, 0.5% fat

[16] = Tasting in soy based product (salt reduced kikoman soy sauce)
Protocol: as §2
(§3) Salt level pure product between 5-40%
(§4) Salt level in application 0.3-1.0%
C18:2-gaba-(0.5 ppm) was added to a 1% diluted salt reduced kikoman soy sauce (9% salt).
C18:2-gaba-(0.5 ppm) was added to pure salt reduced kikoman soy sauce (9% salt).

[17] = Tasting in fish based product (fish sauce)
Protocol: as §2, §3, §4
C18:2-gaba-(0.5 ppm) was added to a 1% diluted fish sauce sauce (0.27% salt).
C18:2-gaba-(0.5 ppm) was added to pure fish sauce (27% salt).

## CCCCC/C=C\C/C=C\CCCCCCCC(=O)NCCCC(=O)O [C18:2-gaba]
[1]
  taste description: long lasting, juicy and fatty skin like very authentic, like eating the fruit instead of drinking a drink
[2]
  taste description: very creamy, full and fresh strawberry
Tasting of baked pizza
  taste of crust, tomato and aftertaste of pizza: less dry, more succulent and the tomato was richer, sweeter and the total lingering aftertaste was very rich and pleasant
[3]
  taste description: fruity peach, long lasting, juicy and fatty skin like very authentic
Soy milk
  description by expert tasters: clean, creamy, good masking of the soy bean taste, creamy and milky
[4]
  description by expert tasters: enhances sweet juicy orange notes, enhanced mouthfeel. Additionally, the off-notes of the high intensity sweetener were suppressed
[5]
  taste description: very ripe, jammy, long lasting and sweet
Test in 3 in 1 coffee
  description by expert tasters: very nice mouthfeel effect, creamy as if coffee creamer is added, more sweet
[6]
  taste description: much fuller, creamy, rich, less acidic
[7]
  description by expert tasters: strongly enhanced alcohol effect, more cocoa, very creamy and long lasting aftertaste
[8]
  taste description: full long lasting nice juicy, almost a bit salty
[8]; listed as C18:2 gaba
  taste description: fatty skin like, juicy, authentic
[9]
  taste description: full, rich , creamy, more egg yolk taste
[10]
  taste description: creamy, fruity authentic strawberry , stronger strawberry, ripe, long lasting, juicy
[11]
  tasting result (trained panelists): more mouthfeel, with a lingering creamy authentic butter taste
[12]; 0.5 ppm, chocolate milk 1.8% fat
  description by expert tasters: stronger cocoa note, more chocolate vs cocoa
[12]; 0.5 ppm, chocolate milk 3% fat
  description by expert tasters: very creamy, enhanced cocoa note
[12]; 1 ppm, chocolate milk 1.8% fat
  description by expert tasters: very creamy, chocolate, long-lasting creamy and chocolate taste
[12]; 1 ppm, chocolate milk 3% fat
  description by expert tasters: very creamy, lasting, sweet, almost taste like chocolate ice cream
Tasting in cheese sauce
  tasting result (trained panelists): Full, Salty, cheese bite expanding
[13]
  taste description: much more salty, sweet and long lasting
[14]; 450 gram chicken filet, 2 minutes high fire and 5 minutes medium fire
  taste of the chicken: more juicy, succulent, lingering more white meat
[14]; after frying chicken filet
  taste of the frying oil: more savoury golden brown notes
[15]
  tasting result (trained panelists): Strong, Salty, Umami, mouthfeel
[16]; 0.5 ppm in 1% diluted salt reduced kikoman soy sauce (9% salt)
  tasting result (trained panelists): stronger, more umami, long lasting, richer
[16]; 0.5 ppm in pure salt reduced kikoman soy sauce (9% salt)
  tasting result (trained panelists): strong in body and mouthfeel,and more salty
[17]; 0.5 ppm in 1% diluted fish sauce (0.27% salt)
  tasting result (trained panelists): stronger in umami, longer lasting and richer
[17]; 0.5 ppm in pure fish sauce (27% salt)
  tasting result (trained panelists): strong in body and mouthfeel, more salty, richer with more rounded fish notes

Source: patent publication US11832638B2, “N-acyl derivatives of gamma amino-butyric acid and beta alanine as food flavouring compounds” (GIVAUDAN SA, priority 2012, dated 2023)
